In PMC6385122, “Design and Synthesis of Arylamidine Derivatives as Serotonin/Norepinephrine Dual Reuptake Inhibitors” (Molecules, 2019):
Where a name gives a salt, the structure may show the parent alone.

How the values were obtained:
[1] = molecular target: T1, NE reuptake (NE transporter) (Rattus norvegicus, UniProt Q63380); assay: Inhibition of NE reuptake in rat brain synaptosome (3H-NE uptake); format: biochemical; settings: 10 μM, read-out: NE reuptake percent inhibition
T1 construct: from tissue; host or cells: Wistar rat brain (procerebrum; crude synaptosomal supernatant)
Protocol: (§1) All the target compounds were evaluated for their inhibitory activity against the reuptake of 5-HT and NE at the cellular level. Rat brain tissue was used for the uptake test, which included ^3H-5-HT and ^3H-NE [15]. 1-[7,8-^3H]-Noradrenaline and 5-hydroxy-[^3H]-tryptamine trifluoroacetate were obtained from Amersham Corporation.
(§2) Adult male Wistar rats were used. Animals were killed by decapitation and the whole brain, with the exception of the brainstem and cerebellum, was quickly removed. The procerebrum region was prepared, weighed, and homogenized in 10 volumes of ice-cold 0.32 mol/L sucrose solution using a glass homogenizer. The homogenate was centrifuged at 1000× g and 4 °C for 10 min. The supernatant was decanted and used for the uptake experiments. […] For each assay, three tubes were incubated with the vehicle (20 µL) at 0 °C in an ice bath. After incubation, the tubes were immediately filtered with a cell harvester. The fiberglass filter membrane was washed three times with ice-cold saline, placed in a scintillation vial, and counted in liquid scintillation cocktail (4 mL). Active uptake was the difference between the counts per minute at 37 and 0 °C. The percent inhibition at each drug concentration was the mean of three measurements.

[2] = molecular target: T2, 5-HT reuptake (5-HT transporter) (Rattus norvegicus, UniProt P31652); assay: Inhibition of 5-HT reuptake in rat brain synaptosome (3H-5-HT uptake); format: biochemical; settings: 10 μM, read-out: 5-HT reuptake percent inhibition
T2 construct: from tissue; host or cells: Wistar rat brain (procerebrum; crude synaptosomal supernatant)
Protocol: as §1, §2

T2 sequence (P31652 whole entry): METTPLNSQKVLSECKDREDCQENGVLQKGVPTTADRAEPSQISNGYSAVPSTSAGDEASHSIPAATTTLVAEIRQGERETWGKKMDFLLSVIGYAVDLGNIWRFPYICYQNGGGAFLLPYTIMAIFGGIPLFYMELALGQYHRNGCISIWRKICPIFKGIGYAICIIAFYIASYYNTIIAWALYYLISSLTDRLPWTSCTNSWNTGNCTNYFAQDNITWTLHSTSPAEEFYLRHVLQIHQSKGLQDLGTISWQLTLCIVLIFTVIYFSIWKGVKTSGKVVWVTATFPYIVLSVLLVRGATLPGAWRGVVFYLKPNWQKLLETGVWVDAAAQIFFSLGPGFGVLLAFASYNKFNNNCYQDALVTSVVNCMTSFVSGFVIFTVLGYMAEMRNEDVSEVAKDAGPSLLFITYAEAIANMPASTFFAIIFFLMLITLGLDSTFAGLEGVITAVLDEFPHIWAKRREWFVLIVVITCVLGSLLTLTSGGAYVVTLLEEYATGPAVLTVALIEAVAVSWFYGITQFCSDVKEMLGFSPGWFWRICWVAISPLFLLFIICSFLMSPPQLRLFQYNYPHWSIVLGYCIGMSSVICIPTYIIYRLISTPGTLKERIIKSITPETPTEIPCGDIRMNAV
T1 sequence (Q63380 1-617): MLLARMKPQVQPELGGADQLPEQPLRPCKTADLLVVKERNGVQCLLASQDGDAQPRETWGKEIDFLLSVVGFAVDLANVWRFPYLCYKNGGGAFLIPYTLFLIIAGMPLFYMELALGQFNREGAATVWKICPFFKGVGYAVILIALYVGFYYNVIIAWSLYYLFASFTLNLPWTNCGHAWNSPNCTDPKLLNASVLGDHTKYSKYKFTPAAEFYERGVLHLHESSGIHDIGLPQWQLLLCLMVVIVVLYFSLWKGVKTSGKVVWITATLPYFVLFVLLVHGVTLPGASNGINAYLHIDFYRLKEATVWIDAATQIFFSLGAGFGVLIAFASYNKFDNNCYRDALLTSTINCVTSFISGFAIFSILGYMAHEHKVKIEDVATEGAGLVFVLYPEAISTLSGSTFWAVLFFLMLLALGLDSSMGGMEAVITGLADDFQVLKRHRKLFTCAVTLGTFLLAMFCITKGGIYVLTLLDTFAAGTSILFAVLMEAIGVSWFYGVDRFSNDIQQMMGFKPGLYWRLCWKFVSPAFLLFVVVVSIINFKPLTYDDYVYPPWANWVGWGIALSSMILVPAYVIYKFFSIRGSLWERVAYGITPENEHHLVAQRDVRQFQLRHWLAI

In the case of `O=[N+]([O-])c1ccc(/C(=N\Cc2ccccc2)N2CCNCC2)cc1` (as salt: hydrochloride) [Compound I-2, (E)-N-((4-Nitrophenyl)(piperazin-1-yl)methylene)-1-phenylmethanaminehydrochloride], the melting point is reported as 230 to 231 °C.

In the case of `Clc1ccccc1/C(=N\Cc1ccccc1)N1CCNCC1` (as salt: hydrochloride) [Compound I-3, (E)-N-((2-Chlorophenyl)(piperazin-1-yl)methylene)-1-phenylmethanaminehydrochloride], the melting point is reported as 142 to 144 °C.

In the case of `Clc1cccc(/C(=N\Cc2ccccc2)N2CCNCC2)c1` (as salt: hydrochloride) [Compound I-4, (E)-N-((3-Chlorophenyl)(piperazin-1-yl)methylene)-1-phenylmethanaminehydrochloride], the melting point is reported as 235 to 237 °C.

Molecule `Clc1ccc(/C(=N\Cc2ccccc2)N2CCNCC2)cc1` (as salt: hydrochloride) [Compound I-5, (E)-N-((4-Chlorophenyl)(piperazin-1-yl)methylene)-1-phenylmethanaminehydrochloride] has a melting point of 182 to 184 °C.

With `Fc1ccc(/C(=N\Cc2ccccc2)N2CCNCC2)cc1` (as salt: hydrochloride) [Compound I-6, (E)-N-((4-Fluorophenyl)(piperazin-1-yl)methylene)-1-phenylmethanaminehydrochloride] the melting point was 220 to 222 °C.

For `O=[N+]([O-])c1ccc(/C(=N\Cc2ccccc2)N2CCNCC2)cc1` [Compound I-2, (E)-N-((4-Nitrophenyl)(piperazin-1-yl)methylene)-1-phenylmethanaminehydrochloride], the inhibition at 10 µM [1] was 66% and the inhibition at 10 µM [2] was 38%.

For `Clc1ccccc1/C(=N\Cc1ccccc1)N1CCNCC1` [Compound I-3, (E)-N-((2-Chlorophenyl)(piperazin-1-yl)methylene)-1-phenylmethanaminehydrochloride], the inhibition at 10 µM [1] was 65% and the inhibition at 10 µM [2] was 48%.

With `Clc1cccc(/C(=N\Cc2ccccc2)N2CCNCC2)c1` [Compound I-4, (E)-N-((3-Chlorophenyl)(piperazin-1-yl)methylene)-1-phenylmethanaminehydrochloride] the inhibition at 10 µM [1] was 63% and the inhibition at 10 µM [2] was 58%.

In the case of `Clc1ccc(/C(=N\Cc2ccccc2)N2CCNCC2)cc1` [Compound I-5, (E)-N-((4-Chlorophenyl)(piperazin-1-yl)methylene)-1-phenylmethanaminehydrochloride], the inhibition at 10 µM [1] is reported as 57% and the inhibition at 10 µM [2] is reported as 47%.

`Fc1ccc(/C(=N\Cc2ccccc2)N2CCNCC2)cc1` [Compound I-6, (E)-N-((4-Fluorophenyl)(piperazin-1-yl)methylene)-1-phenylmethanaminehydrochloride] gave an inhibition at 10 µM [1] of 39% and an inhibition at 10 µM [2] of 17%.

In the case of `Fc1ccccc1/C(=N\Cc1ccccc1)N1CCNCC1` [Compound I-7, (E)-N-((2-Fluorophenyl)(piperazin-1-yl)methylene)-1-phenylmethanaminehydrochloride], the inhibition at 10 µM [1] is reported as 35% and the inhibition at 10 µM [2] is reported as 38%.

With `N#Cc1ccc(/C(=N\Cc2ccccc2)N2CCNCC2)cc1` [Compound I-8, (E)-4-((Benzylimino)(piperazin-1-yl)methyl)benzonitrilehydrochloride] the inhibition at 10 µM [1] was 67% and the inhibition at 10 µM [2] was 54%.

In the case of `N#Cc1cccc(/C(=N\Cc2ccccc2)N2CCNCC2)c1` [Compound I-9, (E)-3-((Benzylimino)(piperazin-1-yl)methyl)benzonitrilehydrochloride], the inhibition at 10 µM [1] is reported as 51% and the inhibition at 10 µM [2] is reported as 65%.

`Cc1ccc(/C(=N\Cc2ccccc2)N2CCNCC2)cc1` [Compound I-10, (E)-1-Phenyl-N-(piperazin-1-yl(p-tolyl)methylene)methanaminehydrochloride] gave an inhibition at 10 µM [1] of 47% and an inhibition at 10 µM [2] of 61%.

Molecule `O=[N+]([O-])c1ccc(/C(=N\Cc2ccccc2)N2CCNCC2)c(Cl)c1` [Compound I-11, (E)-N-((2-Chloro-4-nitrophenyl)(piperazin-1-yl)methylene)-1-phenylmethanaminehydrochloride] has an inhibition at 10 µM [1] of 49% and an inhibition at 10 µM [2] of 50%.

`O=[N+]([O-])c1ccc(/C(=N\Cc2ccc(Cl)cc2)N2CCNCC2)cc1` [Compound I-12, (E)-1-(4-Chlorophenyl)-N-((4-nitrophenyl)(piperazin-1-yl)methylene)methanaminehydrochloride] gave an inhibition at 10 µM [1] of 81% and an inhibition at 10 µM [2] of 51%.

Work on `Clc1ccc(C/N=C(\c2ccccc2Cl)N2CCNCC2)cc1` [Compound I-13, (E)-1-(4-Chlorophenyl)-N-((2-chlorophenyl)(piperazin-1-yl)methylene)methanaminehydrochloride] yielded an inhibition at 10 µM [1] of 84% and an inhibition at 10 µM [2] of 67%.

In the case of `Clc1ccc(C/N=C(\c2cccc(Cl)c2)N2CCNCC2)cc1` [Compound I-14, (E)-1-(4-Chlorophenyl)-N-((3-chlorophenyl)(piperazin-1-yl)methylene)methanaminehydrochloride], the inhibition at 10 µM [1] is reported as 60% and the inhibition at 10 µM [2] is reported as 76%.

Molecule `Clc1ccc(C/N=C(\c2ccc(Cl)cc2)N2CCNCC2)cc1` [Compound I-15, (E)-1-(4-Chlorophenyl)-N-((4-chlorophenyl)(piperazin-1-yl)methylene)methanaminehydrochloride] has an inhibition at 10 µM [1] of 68% and an inhibition at 10 µM [2] of 48%.

In the case of `Fc1ccc(/C(=N\Cc2ccc(Cl)cc2)N2CCNCC2)cc1` [Compound I-16, (E)-1-(4-Chlorophenyl)-N-((4-fluorophenyl)(piperazin-1-yl)methylene)methanaminehydrochloride], the inhibition at 10 µM [1] is reported as 26% and the inhibition at 10 µM [2] is reported as 45%.

Molecule `Fc1ccccc1/C(=N\Cc1ccc(Cl)cc1)N1CCNCC1` [Compound I-17, (E)-1-(4-Chlorophenyl)-N-((2-fluorophenyl)(piperazin-1-yl)methylene)methanaminehydrochloride] has an inhibition at 10 µM [1] of 27% and an inhibition at 10 µM [2] of 43%.

In the case of `N#Cc1ccc(/C(=N\Cc2ccc(Cl)cc2)N2CCNCC2)cc1` [Compound I-18, (E)-1-(4-Chlorophenyl)-N-((4-cyanophenyl)(piperazin-1-yl)methylene)methanaminehydrochloride], the inhibition at 10 µM [1] is reported as 63% and the inhibition at 10 µM [2] is reported as 75%.

With `Cc1ccc(/C(=N\Cc2ccc(Cl)cc2)N2CCNCC2)cc1` [Compound I-20, (E)-1-(4-Chlorophenyl)-N-(piperazin-1-yl(p-tolyl)methylene)methanaminehydrochloride] the inhibition at 10 µM [1] was 35% and the inhibition at 10 µM [2] was 72%.

In the case of `COc1ccc(C/N=C(\c2ccc([N+](=O)[O-])cc2)N2CCNCC2)cc1` [Compound I-21, (E)-1-(4-Methoxyphenyl)-N-((4-nitrophenyl)(piperazin-1-yl)methylene)methanaminehydrochloride], the inhibition at 10 µM [1] is reported as 57% and the inhibition at 10 µM [2] is reported as 34%.

Molecule `c1ccc(/C(=N\Cc2cccc3ccccc23)N2CCNCC2)cc1` [II-1, (E)-1-(Naphthalen-1-yl)-N-(phenyl(piperazin-1-yl)methylene)methanaminehydrochloride] has an inhibition at 10 µM [1] of 67% and an inhibition at 10 µM [2] of 80%.

Work on `O=[N+]([O-])c1ccc(/C(=N\Cc2cccc3ccccc23)N2CCNCC2)cc1` [II-2, (E)-1-(Naphthalen-1-yl)-N-((4-nitrophenyl)(piperazin-1-yl)methylene)methanaminehydrochloride] yielded an inhibition at 10 µM [1] of 52% and an inhibition at 10 µM [2] of 57%.

For `Fc1ccc(/C(=N\Cc2cccc3ccccc23)N2CCNCC2)cc1` [II-3, (E)-N-((4-Fluorophenyl)(piperazin-1-yl)methylene)-1-(naphthalen-1-yl)methanaminehydrochloride], the inhibition at 10 µM [1] was 76% and the inhibition at 10 µM [2] was 84%.

Molecule `Clc1cccc(/C(=N\Cc2cccc3ccccc23)N2CCNCC2)c1` [II-6, (E)-N-((3-Chlorophenyl)(piperazin-1-yl)methylene)-1-(naphthalen-1-yl)methanaminehydrochloride] has an inhibition at 10 µM [1] of 75% and an inhibition at 10 µM [2] of 65%.

`Clc1ccc(/C(=N\Cc2cccc3ccccc23)N2CCNCC2)cc1` [II-7, (E)-N-((4-Chlorophenyl)(piperazin-1-yl)methylene)-1-(naphthalen-1-yl)methanaminehydrochloride] showed an inhibition at 10 µM [1] of 59% and an inhibition at 10 µM [2] of 62%.

With `N#Cc1ccc(/C(=N\Cc2cccc3ccccc23)N2CCNCC2)cc1` [II-8, (E)-4-(((Naphthalen-1-ylmethyl)imino)(piperazin-1-yl)methyl)benzonitrilehydrochloride] the inhibition at 10 µM [1] was 46% and the inhibition at 10 µM [2] was 70%.

In the case of `N#Cc1cccc(/C(=N\Cc2cccc3ccccc23)N2CCNCC2)c1` [II-9, (E)-3-(((Naphthalen-1-ylmethyl)imino)(piperazin-1-yl)methyl)benzonitrilehydrochloride], the inhibition at 10 µM [1] is reported as 54% and the inhibition at 10 µM [2] is reported as 88%.

Molecule `Cc1ccc(/C(=N\Cc2cccc3ccccc23)N2CCNCC2)cc1` [II-10, (E)-1-(Naphthalen-1-yl)-N-(piperazin-1-yl(p-tolyl)methylene)methanaminehydrochloride] has an inhibition at 10 µM [1] of 63% and an inhibition at 10 µM [2] of 82%.

For `O=[N+]([O-])c1cccc2c(/C(=N\Cc3ccccc3)N3CCNCC3)cccc12` [III-1, (E)-N-((5-Nitronaphthalen-1-yl)(piperazin-1-yl)methylene)-1-phenylmethanaminehydrochloride], the inhibition at 10 µM [1] was 66% and the inhibition at 10 µM [2] was 73%.
